We go through 1 substance from patent US7119077B1, “Multimeric forms of members of the steroid/thyroid superfamily of receptors with the ultraspiracle receptor” (The Salk Institute for Biological Studies, priority 1990, dated 2006).

Experiment [1] has as its target T1, GEcR/usp (UniProt P04150+P34021, C431Y/E427R/G434N/G439E/K419E/P331L/P416R/S425G/S440G/V435A/V443G).
T1 construct: expressed in transfected cells; host or cells: CV1 monkey kidney cells
T1 sequence (P04150+P34021 with tags, fused parts or gaps P04150:P416R/P04150:K419E/P04150:S425G/P04150:E427R/P04150:C431Y/P04150:G434N/P04150:V435A/P04150:G439E/P04150:S440G/P04150:V443G/P34021:P331L): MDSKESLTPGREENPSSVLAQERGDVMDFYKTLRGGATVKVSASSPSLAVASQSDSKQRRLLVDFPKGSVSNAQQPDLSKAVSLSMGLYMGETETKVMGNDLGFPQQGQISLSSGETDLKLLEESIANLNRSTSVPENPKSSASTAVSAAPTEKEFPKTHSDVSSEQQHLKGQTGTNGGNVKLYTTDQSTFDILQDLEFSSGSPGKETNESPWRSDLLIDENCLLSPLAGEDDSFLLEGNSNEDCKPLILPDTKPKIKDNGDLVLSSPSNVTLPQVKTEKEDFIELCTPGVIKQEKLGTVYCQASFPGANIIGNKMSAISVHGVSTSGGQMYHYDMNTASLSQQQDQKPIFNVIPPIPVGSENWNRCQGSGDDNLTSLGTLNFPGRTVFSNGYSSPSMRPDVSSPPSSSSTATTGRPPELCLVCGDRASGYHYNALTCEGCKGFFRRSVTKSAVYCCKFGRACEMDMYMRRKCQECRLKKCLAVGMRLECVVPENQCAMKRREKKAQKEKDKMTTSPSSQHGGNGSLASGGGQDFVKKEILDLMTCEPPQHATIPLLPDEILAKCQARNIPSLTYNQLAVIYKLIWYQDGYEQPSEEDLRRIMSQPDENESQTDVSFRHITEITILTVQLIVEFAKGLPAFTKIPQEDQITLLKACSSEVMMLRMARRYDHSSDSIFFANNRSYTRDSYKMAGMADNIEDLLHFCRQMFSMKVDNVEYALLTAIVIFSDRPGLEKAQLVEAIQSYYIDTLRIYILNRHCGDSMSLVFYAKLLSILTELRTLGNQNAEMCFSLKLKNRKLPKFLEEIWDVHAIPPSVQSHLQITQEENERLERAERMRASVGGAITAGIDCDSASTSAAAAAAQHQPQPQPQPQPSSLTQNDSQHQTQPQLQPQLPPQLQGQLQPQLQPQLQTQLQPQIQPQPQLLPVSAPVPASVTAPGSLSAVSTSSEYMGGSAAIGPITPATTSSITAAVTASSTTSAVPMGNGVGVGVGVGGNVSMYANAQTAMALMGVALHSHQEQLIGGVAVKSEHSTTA
As to the kind of experiment: Cotransfection CAT reporter assay with GEcR (GR N-terminal domain fused to EcR) and usp in CV1 cells. As to conditions: CV1 cells transfected with GEcR alone. It is filed as cell-based, Drosophila. An excerpt: (§1) GEcR was constructed by ligation of a NotI/BamHI fragment containing the DNA and hormone binding domains of a modified EcR cDNA, EcRnx, in place of the DNA and hormone binding domains of the similarly modified glucocorticoid receptor expression construct pRShGRnx [Giguére et al., Nature Vol. 330:624–629 (1987)]. The modified receptor cDNA was constructed using the site-directed mutagenesis procedure of Kunkel, T. A., Proc. Natl. Acad. Sci. USA Vol. 82:[…] (1985) to insert NotI (employing SEQ ID NO:23 as the oligonucleotide template) and XhoI (employing SEQ ID NO:24 as the oligonucleotide template) sites immediately flanking the DNA binding domain. SEQ ID NO:23 is:
(§2) Transfection was performed with calcium-phosphate precipitation method as described previously [Umesono et al., Nature 336:262–264 (1989)]. […] Beta-galactosidase (βGal) activity was measured and a normalized amount of extract was used for CAT assay (Umesono et al. (1989) supra]. The following amount of plasmid DNA was included in the 10 cm plate transfection: 250 ng each of CMX-EcR and RSV-GEcR; 500 ng of CMX-usp; 5 μg ΔMTV-EcRE5-CTA; 5 μg of βGal internal control plasmid CH111 (a derivative of CH110, Promega). The amount of CMX plasmid was kept constant in each transfection by adding CMX-luciferase. PGEM4 was added to bring the total amount of plasmid DNA to 15 μg per plate. […]
On the technique in general: Reporter assays use an easily measured gene product as a stand-in for the process of interest.

The target in experiment [2] is T2, GEcR/usp (UniProt P04150+P34021, C431Y/E427R/G434N/G439E/K419E/P331L/P416R/S425G/S440G/V435A/V443G).
T2 construct: expressed in transfected cells; host or cells: CV1 monkey kidney cells
T2 sequence (P04150+P34021 with tags, fused parts or gaps P04150:P416R/P04150:K419E/P04150:S425G/P04150:E427R/P04150:C431Y/P04150:G434N/P04150:V435A/P04150:G439E/P04150:S440G/P04150:V443G/P34021:P331L): T1 sequence (P04150+P34021 with tags, fused parts or gaps P04150:P416R/P04150:K419E/P04150:S425G/P04150:E427R/P04150:C431Y/P04150:G434N/P04150:V435A/P04150:G439E/P04150:S440G/P04150:V443G/P34021:P331L)
T2 sequence (P20153 1-508 partner): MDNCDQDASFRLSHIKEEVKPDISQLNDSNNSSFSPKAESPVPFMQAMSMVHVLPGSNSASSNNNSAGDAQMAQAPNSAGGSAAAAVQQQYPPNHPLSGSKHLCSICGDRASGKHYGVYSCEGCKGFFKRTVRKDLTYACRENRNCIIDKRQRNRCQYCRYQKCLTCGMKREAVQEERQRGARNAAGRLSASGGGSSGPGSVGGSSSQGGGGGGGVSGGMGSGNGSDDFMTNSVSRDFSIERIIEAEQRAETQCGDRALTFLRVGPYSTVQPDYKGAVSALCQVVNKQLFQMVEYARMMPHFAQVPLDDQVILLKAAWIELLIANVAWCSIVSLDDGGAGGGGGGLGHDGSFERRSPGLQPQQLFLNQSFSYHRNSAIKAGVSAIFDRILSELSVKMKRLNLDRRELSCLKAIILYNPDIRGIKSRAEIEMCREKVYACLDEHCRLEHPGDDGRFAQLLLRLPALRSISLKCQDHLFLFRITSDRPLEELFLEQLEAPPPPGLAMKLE
The experiment is described as above. In kind it is cell-based, Drosophila. The settings on record: CV1 cells cotransfected with GEcR and usp expression plasmid, EcRE reporter.
Text: as §1, §2

With 20-Hydroxyecdysone [20-OH-ecdysone], on GEcR/usp [1], the “ecdysone response (CAT activity)” value was “failed to confer ecdysone response”. Besides, the “induction of CAT activity” value on GEcR/usp [2] is recorded as 8–10 fold.
